# Experimental data reported in patent US9211284B2, “Diagnosis and treatment of P.R.I.C.E. syndrome” (priority 2013, dated 2015).
# “Also recorded” adds a separate entry of the source.
# What was measured:
# [1] = system: patient having P.R.I.C.E. Syndrome; experiment: Example 2: case report of a patient with P.R.I.C.E. Syndrome, earlier medications then INTUNIV (plus inositol); type: in vivo, human; details: Example 2 patient; for effect on the patient's symptoms (particularism, concentration) / side effects: medications given before the P.R.I.C.E. diagnosis
# Experimental: They had been taking Zoloft and Abilify, as well as Melatonin to help them sleep.
# The Applicant tapered and discontinued the patient's then-current medications. The Applicant then titrated up INTUNIV® 1 mg at bedtime, increasing by an additional 1 mg at bedtime every week as necessary to achieve symptom control, up to a maximum of 4 mg.
# [2] = system: patient having P.R.I.C.E. Syndrome; experiment: Example 1: case report of a patient with P.R.I.C.E. Syndrome, earlier medications then KAPVAY (plus inositol)
# From the text: The patient was tried on many psychostimulant medications, which are the gold standard for treatment of ADHD. Medications in this class include: Adderall/XR, Focalin/XR, Dexedrine, Vyvanse, Ritalin/LA/ER, Metadate ER/CD, Concerta and Daytrana.
# By convention, psychiatrists refer to this phenomenon as Bipolar III or hypomania induced by medication which predicts and unmasks the development of spontaneous mood swings of genuine Bipolar to come for the patient later in life.
# Nevertheless, the psychiatrist tried a series of atypical antipsychotics, including Zyprexa, Geodon, Seroquel as well as two FDA approved drugs for treatment of irritability in Autistic Disorder, Abilify and Risperdal.
# The Applicant tapered and discontinued the aforementioned medications in the patient. The Applicant then titrated up KAPVAY® as follows: 0.1 mg at bedtime for a week; next, 0.1 mg twice a day for a week; next, 0.1 mg in the morning and 0.2 mg at night for one week; and finally 0.2 mg twice a day going forward.
# [3] = system: patients having P.R.I.C.E. Syndrome; experiment: Applicant's general clinical findings in patients who meet all criteria for P.R.I.C.E. Syndrome; type: in vivo, human; details: patients meeting all P.R.I.C.E. criteria, Applicant's practice
# From the text: Both KAPVAY® and INTUNIV® are FDA-approved for treatment of ADHD. […] A psychiatrist would be led away from prescribing KAPVAY® or INTUNIV® to patients with suspected Bipolar Disorder since it is known that alpha-2 adrenergic agonists could potentially exacerbate emotional lability found in such patients.
# Extended release clonidine is capable of stable therapeutic effects by maintaining a constant serum level for an extended period in order to avoid the “peak and trough” side effects of transient sedation at peak serum levels and rebound exacerbation of symptoms at trough levels. Embodiments of extended release compositions of clonidine are described in U.S. Pat. No. 5,869,100, which is incorporated herein by reference in its entirety.
# [4] = system: patients with Bipolar Disorder; details: post-marketing reports; cited from earlier work
# [5] = cited from earlier work
# [6] = Example 1 patient, medications tried before the P.R.I.C.E. diagnosis
SMILES,"side effects ([2]; human, in vivo)","effect on the patient's symptoms (agitation, impulsivity, concentration, rigidity) [2, 6]",further results
O=C1CCc2ccc(OCCCCN3CCN(c4cccc(Cl)c4Cl)CC3)cc2N1 [Abilify],"severe sedation, impaired their concentration further and caused an increase in both appetite and weight",–,"effect on the patient's symptoms (particularism, concentration) [1]: without improvement in concentration; side effects [1]: sedation and tremor"
COC(=O)C(c1ccccc1)C1CCCCN1 (stereo not shown) [Daytrana],–,worsen their agitation without helping their concentration,–
CCCC(CCC)C(=O)O [Depakote],–,ineffective; also recorded: not helping their agitation,–
O=C1Cc2cc(CCN3CCN(c4nsc5ccccc45)CC3)c(Cl)cc2N1 [Geodon],"severe sedation, impaired their concentration further and caused an increase in both appetite and weight",–,–
"O[C@H]1[C@H](O)[C@@H](O)[C@H](O)[C@@H](O)[C@H]1O [Inositol, inositol]",–,–,"effectiveness in treating P.R.I.C.E. Syndrome [3]: effective in addressing residual particularism; effect on ""getting stuck"" on certain topics in conversation ([1]; Inositol 9000 mg twice a day added to INTUNIV): therapeutically beneficial"
Nc1nnc(-c2cccc(Cl)c2Cl)c(N)n1 [Lamictal],–,ineffective; also recorded: not helping their agitation,–
CN(C)CCC[C@@]1(c2ccc(F)cc2)OCc2cc(C#N)ccc21 [Lexapro],–,worsening their agitation without helping their rigidity,–
[Li] [Lithium],–,–,"side effects [2, 6]: worsening the patient's concentration"
NC(=O)C[S@@+]([O-])C(c1ccccc1)c1ccccc1 [Nuvigil],–,increased agitation and impulsivity,–
NC(=O)C[S+]([O-])C(c1ccccc1)c1ccccc1 (stereo not shown) [Provigil],–,increased agitation and impulsivity,–
CNCCC(Oc1ccc(C(F)(F)F)cc1)c1ccccc1 (stereo not shown) [Prozac],–,–,"effect on the patient's symptoms (particularism, concentration) [1]: did not alleviate the particularism; side effects [1]: become “wild” and unable to sleep"
Cc1nc2n(c(=O)c1CCN1CCC(c3noc4cc(F)ccc34)CC1)CCCC2 [Risperdal],"severe sedation, impaired their concentration further and caused an increase in both appetite and weight",–,side effects [1]: sedation and weight gain
OCCOCCN1CCN(C2=Nc3ccccc3Sc3ccccc32)CC1 [Seroquel],"severe sedation, impaired their concentration further and caused an increase in both appetite and weight",–,–
CNCC[C@@H](Oc1ccccc1C)c1ccccc1 [Strattera],–,increased agitation and impulsivity,–
NC(=O)N1c2ccccc2C=Cc2ccccc21 [Tegretol],worsening the patient's concentration,ineffective,–
"N=C(N)NC(=O)Cc1c(Cl)cccc1Cl [Tenex, N-(Aminoiminomethyl)-2,6-dichlorobenzeneacetamide; N-amidino-2-(2,6 dichlorophenyl) acetamide]",–,not effective,"manic symptoms in Bipolar Disorder [4]: development or exacerbation of manic symptoms; side effects [2, 6]: too sedative"
CC1(C)O[C@@H]2[C@@H](CO[C@@]3(COS(N)(=O)=O)OC(C)(C)O[C@@H]23)O1 [Topamax],worsening the patient's concentration,ineffective,–
NC(=O)N1c2ccccc2CC(=O)c2ccccc21 [Trileptal],worsening the patient's concentration,ineffective,–
CC(NC(C)(C)C)C(=O)c1cccc(Cl)c1 (stereo not shown) [Wellbutrin],–,increased agitation and impulsivity,–
CN[C@H]1CC[C@@H](c2ccc(Cl)c(Cl)c2)c2ccccc21 [Zoloft],–,–,"effect on the patient's symptoms (particularism, concentration) [1]: did not alleviate the particularism; side effects [1]: become “wild” and unable to sleep"
Cc1cc2c(s1)Nc1ccccc1N=C2N1CCN(C)CC1 [Zyprexa],"severe sedation, impaired their concentration further and caused an increase in both appetite and weight",–,–
CC(C)NCC(O)COc1cccc2ccccc12 (stereo not shown) [propranolol],too sedative,not effective,–
"Clc1cccc(Cl)c1N=C1NCCN1 [short-acting clonidine, 2,6-dichloro-N-2-imidazolidinylidene benzeneamine]",too sedative,not effective,"biological half-life ([5]; after oral administration of short-acting clonidine): four to six; primary side-effect ([5]; short-acting clonidine, about an hour after the given dose): sedation; absorption from the gastrointestinal tract ([5]; short-acting oral formulation): almost completely absorbed; effectiveness in treating P.R.I.C.E. Syndrome [3]: ineffective"
